# Experiments:
# [1] = test system: adjuvant-induced arthritis model; details: model of rheumatoid arthritis; cited from earlier work
# [2] = used alone or in combination with picibanil; cited from earlier work
# [3] = test system: CD45RA^+CD25^−CD4^+ T cells; assay: Expansion culture of CD45RA^+CD25^−CD4^+ T cells with anti-CD3/CD28 beads and IL-2, rapamycin added; format: cell-based, human
# Experimental: (§1) Venous blood was obtained from healthy volunteers (human). Peripheral blood mononuclear cell (PBMC) was isolated by Ficoll-Hypaque (Amersham Biosciences-Uppsala) density gradient centrifugation. The cells were stained with allophycocyanin (APC)-conjugated anti-CD4 monoclonal antibody (mAb), phycoerythrin (PE)-conjugated anti-CD25 mAb, and fluorescein isothiocyanate (FITC)-conjugated anti-CD45RA mAb for 30 min at 4° C. in the dark, after which the following six different cell fractions were isolated using a BD FACSAria cell sorter (Becton Dickinson)(see FIG. 1A).
# (§2) CD45RA^+CD25^+CD4^+ T cells or CD45RA^+CD25^−CD4^+ T cells (5×10̂4 cells/well) separated as described above were stimulated with anti-human CD3 and CD28 conjugate beads in a ratio of 4 beads per cell in a 96-well round-bottomed culture plate containing 200 μl per well of a proliferation medium (AlyS505N (produced by Cell Science & Technology Institute) supplemented with 2% human AB serum) in the presence of human IL-2 (1000 U/ml, produced by Cell Science & Technology Institute). Rapamycin (20 nM, produced by Sigma) was added as appropriate. Every 3 to 4 days, half of the medium was replaced with a fresh proliferation medium containing IL-2. If necessary, the cells were separated and repeatedly re-stimulated with anti-CD3/CD28 antibody conjugated beads every 10 to 14 days. Two days before functional assay, the anti-CD3/CD28 antibody conjugated beads were removed magnetically, and the cells were cultured along with 100 U/ml IL-2 in the absence of rapamycin. After 3 times of washing, the cells were used for functional assay.
# [4] = test system: CD45RA^+CD25^+CD4^+ T cells; assay: Expansion culture of CD45RA^+CD25^+CD4^+ T cells with anti-CD3/CD28 beads and IL-2, rapamycin added; format: cell-based, human; details: for increase of cell number in the culture product: 50 days after start
# Experimental: as §1, §2
# [5] = test system: CD45RA^+CD25^−CD4^+ T cell line; assay: Suppression assay ([^3H] thymidine uptake) of the rapamycin-cultured CD45RA^+CD25^−CD4^+ T cell line; format: cell-based, human; details: then 2 days without rapamycin
# Experimental: as §2, with “Two days before functional assay, the anti-CD3/CD28 antibody conjugated beads were removed magnetically, and the cells were cultured along with 100 U/ml IL-2 in the absence of rapamycin. After 3 times of washing, the cells were used for functional assay.” left out
# (§3) The indicated number of CD45RA^+CD25^+CD4^+ T cells just isolated from human peripheral blood, expanded CD45RA^+CD25^+CD4^+ T cell lines, or expanded CD45RA^+CD25^−CD4^+ T cell line, alone or along with self responder CD4^+ T cells (5×10̂4 cells/well), were stimulated with radiated (40 Gy) allogenic PBMC (1×10̂5 cells/well) in a round-bottomed 96-well microplate containing a proliferation medium. […] Subsequently, the cells were recovered, and [^3H] thymidine uptake was measured using 1450 Microbeta TriLux (Wallac).
# Candida albicans = details: both in vitro and in vivo, particularly against Candida albicans; cited from earlier work
# mouse CD4^+ T = details: cited from earlier work
# [6] = test system: CD45RA^+CD25^+CD4^+ T cell line; assay: Suppression assay ([^3H] thymidine uptake) of the rapamycin-cultured CD45RA^+CD25^+CD4^+ T cell line; format: cell-based, human; details: then 2 days without rapamycin
# Experimental: as §2, with “Two days before functional assay, the anti-CD3/CD28 antibody conjugated beads were removed magnetically, and the cells were cultured along with 100 U/ml IL-2 in the absence of rapamycin. After 3 times of washing, the cells were used for functional assay.” left out
# as §3
# [7] = test system: CD45RA^+CD25^+CD4^+ T cells; assay: FACS phenotype analysis of the T cell line from CD45RA^+CD25^+CD4^+ T cells cultured with rapamycin; format: cell-based, human
# Experimental: PBMC derived from the subjects, or expanded T cell line were incubated with various antibodies for 30 min at 4° C. in the dark, washed, and analyzed using a BD FACSAria cell sorter and a FACSDiVA software (Becton Dickinson). The antibodies used were perCP-conjugated anti-CD4 mAb, biotin-conjugated anti-CD25 mAb, FITC-conjugated anti-CD45RA mAb, PE-conjugated anti-CD45RB mAb, anti-CD45RO mAb, anti-CD62L mAb, anti-CD38 mAb, anti-GITR mAb, and anti-TNFRII mAb. For intracellular staining with CTLA-4, the cells were subjected to cell surface staining, fixation, and permeabilization with Cytofix/Cytoperm solution (Becton Dickinson), and then intracellularly stained with PE-conjugated anti-CTLA-4.
# CD45RA^+CD25^+CD4^+ T cells or CD45RA^+CD25^−CD4^+ T cells in human peripheral blood separated in the same manner as Example 1 (5×10̂4 cells/well) were stimulated with anti-human CD3 and CD28 conjugate beads in a ratio of 4 beads per cell in a 96-well round-bottomed culture plate containing 200 μl per well of a proliferation medium (AlyS505N (produced by Cell Science & Technology Institute) supplemented with 2% human AB serum) in the presence of human IL-2 (1000 U/ml, produced by Cell Science & Technology Institute). Rapamycin (20 nM, produced by Sigma) was added to the medium 0 or 40 days after the start of cultivation. Every 3 to 4 days, half of the medium was replaced with a fresh proliferation medium containing IL-2. If necessary, the cells were separated and repeatedly re-stimulated with anti-CD3/CD28 antibody conjugate beads every 10 to 14 days. Fifty days after the start of cultivation, the cells were collected and used for FACS analysis.
# Expanded T cell lines were incubated with various antibodies for 30 minutes at 4° C. in the dark, washed, and analyzed using BD FACSAria cell sorter and FACSDiVA software (Becton Dickinson). The antibodies and staining conditions used were the same as Example 1.
# [8] = stimulated in the presence of rapamycin
# [9] = rapamycin 20 nM from day 40, collected day 50
smiles,measurement,setting,value
CO[C@H]1C[C@@H]2CC[C@@H](C)[C@@](O)(O2)C(=O)C(=O)N2CCCC[C@H]2C(=O)O[C@H]([C@H](C)C[C@@H]2CC[C@@H](O)[C@H](OC)C2)CC(=O)[C@H](C)/C=C(\C)[C@@H](O)[C@@H](OC)C(=O)[C@H](C)C[C@H](C)/C=C/C=C/C=C/1C [rapamycin],efficacy in adjuvant-induced arthritis model,[1],effective
same,antitumor activity,[2],possess antitumor activity
same,influence on the proliferation of the T cell line,[3]; rapamycin 20 nM added 19 days after start of cultivation,almost no influence
same,proliferation of CD45RA^+CD25^−CD4^+ T cells,"[3]; rapamycin 20 nM from the start of cultivation, compared with cultivation in the absence of rapamycin",slightly suppressed
same,increase of cell number in the culture product,"[3]; rapamycin 20 nM from the start of cultivation, about 35 days after start",about 700 times
same,increase of cell number in the culture product,[4]; rapamycin 20 nM added 7 days after start,about 60 times
same,proliferation of the CD45RA^+CD25^+CD4^+ T cell line,[4]; rapamycin 20 nM added 7 days or 39 days after start of cultivation,suppressed after the time of addition
same,increase of cell number in the culture product,[4]; rapamycin 20 nM added 39 days after start,about 700 times
same,proliferation of CD45RA^+CD25^+CD4^+ T cells,[4]; rapamycin 20 nM added from the start of cultivation,suppressed
same,increase of cell number in the culture product,[4]; rapamycin 20 nM added from the start of cultivation (day 0),about 20 times
same,T cell line's effect on proliferation of CD4^+ T cells in response to alloantigen-presenting cells,"[5]; rapamycin added day 19, about 35 days after start",strongly suppressed
same,T cell line's effect on proliferation of CD4^+ T cells in response to alloantigen-presenting cells,"[5]; rapamycin from day 0, about 35 days culture",strongly suppressed
same,antifungal activity,Candida albicans,possess antifungal activity
same,CD4^+CD25^+FOXP3^+ regulatory T cells,mouse CD4^+ T; mouse CD4^+ T stimulated with an antigen in the presence of rapamycin,expanded selectively
same,expression of FOXP3 in CD4^+CD25^− T cells,mouse CD4^+ T; [8],did not enhance
same,proliferation of isolated CD4^+CD25^+ T cells,mouse CD4^+ T; [8],proliferated vigorously
same,suppressive function of the T cell population produced from CD4^+CD25^+ T cells,mouse CD4^+ T; [8],having suppressive function
same,suppressive function of the T cell population produced from CD4^+CD25^− T cells,mouse CD4^+ T; [8],without suppressive function
same,T cell line's effect on proliferation of CD4^+ T cells in response to alloantigen-presenting cells,"[6]; rapamycin added day 7 or day 39, collected 50 days after start",strongly suppressed
same,T cell line's effect on proliferation of CD4^+ T cells in response to alloantigen-presenting cells,"[6]; rapamycin from day 0, 50 days culture",strongly suppressed
same,CD45RO phenotype of the T cell line,"[7]; rapamycin 20 nM from day 0, collected day 50",negative
same,CD25 expression relative to CD45RA^−CD25^high+CD4^+ T cells in peripheral blood,[7]; [9],about 0.8 times
same,CD45RA expression relative to CD45RA^+CD25^+CD4^+ T cells in peripheral blood,[7]; [9],about ⅙
same,CD45RB expression relative to CD45RA^−CD25^high+CD4^+ T cells in peripheral blood,[7]; [9],about 4 times
same,CD45RO expression relative to CD45RA^−CD25^high+CD4^+ T cells in peripheral blood,[7]; [9],about 1/50
same,CD62L expression relative to CD45RA^−CD25^high+CD4^+ T cells in peripheral blood,[7]; [9],about ⅙
same,GITR / CTLA4 phenotype of the T cell line,[7]; [9],GITR^+CTLA4^+

# From patent US20090246212A1, “DEVELOPMENT OF METHOD FOR SCREENING FOR DRUG CAPABLE OF IMPROVING PRODUCTION OF REGULATORY T CELLS AND METHOD FOR PRODUCING REGULATORY T CELLS USING IMMUNOSUPPRESSIVE MACROLIDE ANTIBIOTIC” (KYOTO UNIVERSITY, priority 2005, published 2009)
